For 51 compounds, IC50 results are on record in patent publication US9085575B2, “Tri- and tetracyclic pyrazolo[3,4-B]pyridine compounds as antineoplastic agent” (PIERRE FABRE MEDICAMENT, priority 2011, dated 2015).

A word on the IC50: it is the concentration that inhibits the measured activity by half.

ALK, sequence (Q9UM73 19-1620): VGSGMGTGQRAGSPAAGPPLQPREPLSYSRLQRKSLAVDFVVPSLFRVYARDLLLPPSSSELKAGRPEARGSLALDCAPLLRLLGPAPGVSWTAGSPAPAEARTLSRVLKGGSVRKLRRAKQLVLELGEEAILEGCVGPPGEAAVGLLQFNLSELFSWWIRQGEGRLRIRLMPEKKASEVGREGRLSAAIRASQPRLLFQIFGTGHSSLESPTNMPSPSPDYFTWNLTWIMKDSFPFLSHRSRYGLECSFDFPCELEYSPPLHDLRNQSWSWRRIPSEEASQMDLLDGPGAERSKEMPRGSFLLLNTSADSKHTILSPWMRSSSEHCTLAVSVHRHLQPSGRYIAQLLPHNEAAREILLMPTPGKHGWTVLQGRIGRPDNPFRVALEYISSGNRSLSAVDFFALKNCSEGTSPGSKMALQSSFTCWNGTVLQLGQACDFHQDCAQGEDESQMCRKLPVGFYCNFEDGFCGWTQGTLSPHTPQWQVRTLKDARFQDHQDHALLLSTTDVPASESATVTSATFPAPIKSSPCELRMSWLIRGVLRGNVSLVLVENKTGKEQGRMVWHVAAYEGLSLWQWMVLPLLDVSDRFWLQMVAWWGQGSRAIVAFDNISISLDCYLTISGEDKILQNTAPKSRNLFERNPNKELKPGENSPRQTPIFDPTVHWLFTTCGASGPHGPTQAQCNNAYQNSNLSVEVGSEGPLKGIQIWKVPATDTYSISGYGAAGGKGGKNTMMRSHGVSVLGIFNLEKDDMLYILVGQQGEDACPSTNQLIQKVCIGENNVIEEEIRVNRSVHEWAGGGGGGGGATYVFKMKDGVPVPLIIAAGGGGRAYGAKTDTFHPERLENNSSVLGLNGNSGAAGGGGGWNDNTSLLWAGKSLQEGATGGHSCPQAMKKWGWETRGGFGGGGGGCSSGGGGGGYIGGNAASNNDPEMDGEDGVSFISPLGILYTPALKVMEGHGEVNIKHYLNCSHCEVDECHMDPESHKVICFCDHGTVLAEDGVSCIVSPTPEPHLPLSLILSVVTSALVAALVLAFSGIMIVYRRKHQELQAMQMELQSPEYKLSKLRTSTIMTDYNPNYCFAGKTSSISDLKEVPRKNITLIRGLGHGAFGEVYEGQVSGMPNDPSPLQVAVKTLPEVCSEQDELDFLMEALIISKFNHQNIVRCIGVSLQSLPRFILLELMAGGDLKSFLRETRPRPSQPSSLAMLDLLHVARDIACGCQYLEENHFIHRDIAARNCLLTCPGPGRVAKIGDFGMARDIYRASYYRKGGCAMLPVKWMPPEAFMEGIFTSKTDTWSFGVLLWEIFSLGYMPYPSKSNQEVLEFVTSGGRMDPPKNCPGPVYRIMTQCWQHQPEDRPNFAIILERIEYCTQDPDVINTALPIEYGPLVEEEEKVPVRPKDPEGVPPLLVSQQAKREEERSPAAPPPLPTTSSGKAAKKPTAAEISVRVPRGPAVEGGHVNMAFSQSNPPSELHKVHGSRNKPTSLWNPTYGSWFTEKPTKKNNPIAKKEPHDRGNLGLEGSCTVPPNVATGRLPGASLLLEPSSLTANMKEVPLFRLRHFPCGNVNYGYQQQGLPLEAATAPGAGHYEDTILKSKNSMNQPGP

In the first experiment the test system is Karpas 299 cells. Kind of experiment: Test for measurement of cell proliferation inhibition (Karpas 299), ATPlite. The experiment is classed as cell-based. To be noted: Homo sapiens, Karpas 299 cell line, 72 hours. The protocol: Test for Measurement of Cell Prolifearation Inhibition (Karpas 299)
The antiproliferative activity of the compounds according to the invention has been measured by the ATPlite technique (Perkin Ekmer).
Human cells of non-adherent anaplasic large cell lymphoma (Karpas 299) are seeded in 96-well plates (300,000 cells/ml) on day 1, at a concentration compatible with a logarithmic growth for 72 hours necessary for the evaluation of the compounds according to the invention. All the cells are treated on day 1 and then placed in an incubator at 37° C., under a 5% CO2 atmosphere. Cell viability is evaluated on day 4 by dosing the emitted ATP, which is a characteristic of viable cells. IC50s are determined by a non linear regression based on a sigmoidal model of dose/response relationship, the Hill coefficient being let variable, performed with the GraphPad software according to the algorithm provided.
(In general: ATP-based viability assays read luminescence as a measure of living cells.)
Regarding `Cc1n[nH]c2nc(-c3ccc(O)cc3)c3ccccc3c12` [Comparative compound 98, reference compound], the IC50 was found to be 4.04 µM. The same measure, in the same setting: with `Cc1n[nH]c2nc(-c3ccc(O)cc3)c3c(=O)[nH]c4ccccc4c3c12` [Compound 02] the figure was 0.168 µM; with `Cc1n[nH]c2nc(-c3ccc(O)cc3)c3cnc4ccccc4c3c12` [Compound 06], 1 µM.

The next experiment has as its target ALK (Homo sapiens, UniProt Q9UM73). The experiment can be described thus: Test for measurement of ALK inhibition (ELISA, GST-PLCγ1 substrate, luminescence). The experiment is classed as biochemical. The note with it: comparative tests; read-out: Alk enzymatic inhibition (IC50). The method, then: Test for Measurement of ALK Inhibition
A ViewPlate microplate (Packard) is incubated with 0.1 mg/ml GST-PLCγ1 substrate (purified recombinant form) in phosphate buffer (PBS, pH 7.4) (100 μl/well) for one hour under stirring. The plate is then saturated with blocking solution comprising 5% bovine serum albumin (BSA) (Sigma) in PBS buffer, pH 7.4.
After having added the inhibitor at the desired final concentration (typical range between 30 μM and 10 nM), the reaction is carried out by adding 180 ng/ml ALK to a reaction buffer comprised of 13 mM Tris, pH 7.5 (Sigma); 6.5 mM MgCl2 (Merck); 0.65 mM dithiothreitol (DTT) (Acros); 39 mM sodium β-glycerophosphate (TCI); 0.65 mM sodium orthovanadate (Sigma); and 250 μM ATP (Sigma). Incubation is carried out for 30 minutes at 30° C. under stirring.
After three washings under stirring in 0.1% PBS/Tween-20 buffer (Sigma), an anti-phosphotyrosine antibody, coupled with HRP (UBI) diluted to 1/1000 in 5 mg/ml PBS/BSA buffer, is incubated for one hour with stirring. After three new washings in 0.1% PBS/Tween-20, the wells are incubated for two minutes with 100 μl of SuperSignal ELISA mixture (Pierce).
The signal is read in luminescence mode using a luminometer (SpectraMax M5e, Molecular Devices).
On to `Cc1n[nH]c2nc(-c3ccc(O)cc3)c3ccccc3c12` [Comparative compound 98, reference compound], for which the IC50 was determined as 0.07 µM. On the same count and under the same terms, the value for `Cc1n[nH]c2nc(-c3ccc(O)cc3)c3c(=O)[nH]c4ccccc4c3c12` [Compound 02] was 0.0025 µM; that for `Cc1n[nH]c2nc(-c3ccc(O)cc3)c3cnc4ccccc4c3c12` [Compound 06] was 0.035 µM.

The same experiment, now with this note: enzymatic IC50 on ALK, 250 μM ATP, class symbols; read-out: IC50 (ALK).
On to `Cc1cc2c(o1)-c1c(c(-c3ccc(O)cc3)nc3[nH]nc(C)c13)C2=O` [Compound 01], for which the IC50 was less than 0.1 µM. The same measure, in the same setting: the value for `Cc1n[nH]c2nc(-c3ccc(O)cc3)c3c(=O)[nH]c4ccccc4c3c12` [Compound 02] was less than 0.1 µM; that for `O=C1c2cc(N3CCNCC3)ccc2-c2c1c(-c1c(F)ccc(F)c1F)nc1[nH]nc(-c3cccs3)c21` [Compound 03] was 1 to 10 µM; that for `Cc1n[nH]c2nc(-c3ccc(O)cc3)c3c(=O)[nH]c4cc(N5CCNCC5)ccc4c3c12` [Compound 04] was less than 0.1 µM. Still for that read-out and setting: the value for `O=c1[nH]c2ccccc2c2c1c(-c1ccc(O)cc1)nc1[nH]nc(-c3ccc(N4CCNCC4)cc3)c12` [Compound 05] was less than 0.1 µM; that for `Cc1n[nH]c2nc(-c3ccc(O)cc3)c3c(=O)n(CCCN(C)C)c4ccccc4c3c12` [Compound 07] was less than 0.1 µM; that for `COc1ccc(-c2nc3[nH]nc(C)c3c3c2c(=O)oc2ccccc23)cc1` [Compound 08] was 1 to 10 µM.

As for `Cc1n[nH]c2nc(-c3ccc(O)cc3)c3c(=O)oc4ccccc4c3c12` [Compound 09], the IC50 was 0.1 to 1 µM. The same measure, in the same setting: the value for `Cc1n[nH]c2nc(-c3ccc(O)cc3)c3c(=O)n(CCCN4CCN(C)CC4)c4ccccc4c3c12` [Compound 10] was less than 0.1 µM. The same measure, in the same setting: with `Cc1n[nH]c2nc(-c3ccc(O)cc3)c3c(=O)[nH]c4cc(N5CC[C@@H](N)C5)ccc4c3c12` [Compound 11] the figure was less than 0.1 µM; with `Cc1n[nH]c2nc(-c3ccc(O)cc3)c3c(=O)n(CCCN(C)C)c4cc(N5CCNCC5)ccc4c3c12` [Compound 12], less than 0.1 µM. Still for that read-out and setting: the value for `Cc1n[nH]c2nc(-c3ccc(O)cc3)c3c(=O)[nH]c4cc(OCCCN5CCNCC5)ccc4c3c12` [Compound 13] was less than 0.1 µM; that for `Cc1n[nH]c2nc(-c3ccc(O)cc3)c3c(=O)n(CCCN4CC[C@@H](N)C4)c4ccccc4c3c12` [Compound 14] was less than 0.1 µM; that for `Cc1n[nH]c2nc(-c3ccc(O)cc3)c3c(=O)n(CCN4CCNCC4)c4ccccc4c3c12` [Compound 15] was 0.1 to 1 µM.

For the compound `O=c1[nH]c2cc(N3CCNCC3)ccc2c2c1c(-c1ccc(O)cc1)nc1[nH]nc(-c3ccco3)c12` [Compound 16], the IC50 is less than 0.1 µM. On the same count and under the same terms, with `CC(=O)Oc1ccc(-c2nc3[nH]nc(C)c3c3c2c(=O)[nH]c2cc(N4CCNCC4)ccc23)cc1` [Compound 17] the figure was less than 0.1 µM; with `Cc1n[nH]c2nc(-c3ccc(O)cc3)c3c(=O)[nH]c4cc(N5CCC(N)CC5)ccc4c3c12` [Compound 18], less than 0.1 µM. Regarding `CCOc1ccc(-c2nc3[nH]nc(C)c3c3c2c(=O)[nH]c2cc(N4CCNCC4)ccc23)cc1` [Compound 19], the IC50 was less than 0.1 µM. On the same count and under the same terms, with `CCn1c(=O)c2c(-c3ccc(O)cc3)nc3[nH]nc(C)c3c2c2ccc(N3CCNCC3)cc21` [Compound 20] the figure was less than 0.1 µM; with `Cc1n[nH]c2nc(-c3ccc(O)cc3)c3c(=O)[nH]c4cc(N5CCN(C6CCN(C)CC6)CC5)ccc4c3c12` [Compound 21], less than 0.1 µM. Still for that read-out and setting: the value for `COc1ccc(-c2nc3[nH]nc(N)c3c3c2c(=O)[nH]c2ccc(N4CCNCC4)cc23)cc1` [Compound 22] was 1 to 10 µM; that for `CC(=O)Nc1n[nH]c2nc(-c3ccc(O)cc3)c3c(=O)[nH]c4ccccc4c3c12` [Compound 23] was less than 0.1 µM; that for `Nc1n[nH]c2nc(-c3ccc(O)cc3)c3c(=O)[nH]c4ccccc4c3c12` [Compound 24] was less than 0.1 µM. Still for that read-out and setting: the value for `Nc1n[nH]c2nc(-c3ccc(O)cc3)c3c(=O)[nH]c4ccc(N5CCNCC5)cc4c3c12` [Compound 25] was less than 0.1 µM; that for `Cc1n[nH]c2nc(-c3ccc(O)c(C(=O)O)c3)c3c(=O)[nH]c4cc(N5CCNCC5)ccc4c3c12` [Compound 27] was 1 to 10 µM. With `Cc1n[nH]c2nc(-c3ccc(O)cc3)c3c(=O)oc(-c4ccccc4)cc3c12` [Compound 28], the IC50 lay in the range of 0.1 to 1 µM. Same read-out and setting: the value for `Cc1n[nH]c2nc(-c3cc(O)cc(F)c3)c3c(=O)[nH]c4cc(N5CCNCC5)ccc4c3c12` [Compound 30] was less than 0.1 µM; that for `Cc1n[nH]c2nc(-c3cc(F)cc(F)c3)c3c(=O)[nH]c4cc(N5CCNCC5)ccc4c3c12` [Compound 31] was 1 to 10 µM; that for `Nc1n[nH]c2nc(-c3ccc(O)cc3)c3c(=O)[nH]c4cc(N5CCNCC5)ccc4c3c12` [Compound 32] was less than 0.1 µM. On the same count and under the same terms, the value for `CCOc1cc(F)cc(-c2nc3[nH]nc(C)c3c3c2c(=O)n(CC)c2cc(N4CCNCC4)ccc32)c1` [Compound 33] was less than 0.1 µM; that for `Cc1n[nH]c2nc(-c3ccc(O)cc3)c3c(=O)[nH]ccc3c12` [Compound 35] was 1 to 10 µM; that for `Nc1n[nH]c2nc(-c3cc(F)cc(F)c3)c3c(=O)[nH]c4cc(N5CCNCC5)ccc4c3c12` [Compound 36] was 1 to 10 µM. `CCn1c(=O)c2c(-c3ccc(O)cc3)nc3[nH]nc(N)c3c2c2ccc(N3CCNCC3)cc21` [Compound 37]: the IC50 was less than 0.1 µM.

For `Nc1n[nH]c2nc(-c3ccc(O)cc3F)c3c(=O)[nH]c4ccccc4c3c12` [Compound 38], the IC50 is less than 0.1 µM.

For the compound `Nc1n[nH]c2nc(-c3ccc(O)cc3)c3c(=O)[nH]ccc3c12` [Compound 39], the IC50 was in the range of 1 to 10 µM. Still for that read-out and setting: with `Cc1n[nH]c2nc(-c3ccc(O)c(C(F)(F)F)c3)c3c(=O)[nH]c4cc(N5CCNCC5)ccc4c3c12` [Compound 41] the figure was 0.1 to 1 µM; with `Nc1n[nH]c2nc(-c3ccc(O)cc3)c3c(=O)n(O)c4ccccc4c3c12` [Compound 42], less than 0.1 µM.

On to `CCn1ccc2c(c(-c3ccc(O)cc3)nc3[nH]nc(C)c32)c1=O` [Compound 44], for which the IC50 was in the range of 1 to 10 µM. Still for that read-out and setting: with `Cn1ccc2c(c(-c3cc(F)cc(F)c3)nc3[nH]nc(N)c32)c1=O` [Compound 45] the figure was 1 to 10 µM; with `CCn1c(=O)c2c(-c3ccc(O)c(C(F)(F)F)c3)nc3[nH]nc(C)c3c2c2ccc(N3CCNCC3)cc21` [Compound 46], less than 0.1 µM; with `CCOc1nc2cc(N3CCNCC3)ccc2c2c1c(-c1ccc(O)c(C(F)(F)F)c1)nc1[nH]nc(C)c12` [Compound 47], 0.1 to 1 µM.

On to `CCOC(=O)Oc1ccc(-c2nc3c(c(C)nn3C(=O)OCC)c3c2c(=O)[nH]c2cc(N4CCN(C(=O)OCC)CC4)ccc23)cc1` [Compound 48], for which the IC50 was 1 to 10 µM. The same measure, in the same setting: the value for `CC(=O)Oc1ccc(-c2nc3c(c(C)nn3C(C)=O)c3c2c(=O)[nH]c2cc(N4CCNCC4)ccc23)cc1` [Compound 49] was less than 0.1 µM. Still for that read-out and setting: the value for `Cc1nn(C(=O)OC(C)(C)C)c2nc(-c3ccc(OC(=O)C(C)(C)C)cc3)c3c(=O)[nH]c4cc(N5CCN(C(=O)OC(C)(C)C)CC5)ccc4c3c12` [Compound 50] was 0.1 to 1 µM; that for `COc1ccc(-c2nc3[nH]nc(N)c3c3c2c(=O)[nH]c2cc(N4CCNCC4)ccc23)cc1` [Compound 51] was less than 0.1 µM. Regarding `CN1CCN(c2ccc(C(=O)Nc3n[nH]c4nc(-c5ccc(O)cc5)c5c(=O)[nH]c6ccccc6c5c34)cc2)CC1` [Compound 52], the IC50 is less than 0.1 µM.

In the case of `Cc1n[nH]c2nc(-c3ccc(O)cc3)c3c(c12)CCNC3=O` [Compound 53], the IC50 was less than 0.1 µM.

With `CCn1cc(-c2ccc(N3CCNCC3)cc2)c2c(c(-c3ccc(O)cc3)nc3[nH]nc(N)c32)c1=O` [Compound 54], the IC50 is 1 to 10 µM.

On to `CCn1c(=O)c2c(-c3cc(F)cc(F)c3)nc3[nH]nc(N)c3c2c2ccc(N3CCNCC3)cc21` [Compound 55], for which the IC50 was 0.1 to 1 µM.
